Measured values reported in patent publication US20160090351A1, “INHIBITORS OF DEUBIQUITINATING PROTEASES” (BRANDEIS UNIVERSITY, priority 2013, published 2016).
“Also recorded” adds a separate entry of the source.

What was measured:
[1] = tested on: USP9x, USP19, USP7/8, USP28/15; experiment: HA-Ub-VS activity profiling in cell lysates, USPs; assay type: biochemical, human
[2] = tested on: MCF7 cells; experiment: viability and cell cycle of MCF7 cells (Alamar Blue, FACS)
Method: (§2) MCF7 cells were dosed every 2 hours with the indicated concentration of C15. After 6 hours, cells were lysed by freeze thaw and then sonicated in 0.5% SDS. […] MCF7 cells were treated under the stated conditions then analyzed for cell cycle. […] G. Cells treated with C17 (25 μM), dosed every 24 hours. H. Cells treated with C17 (50 μM), dosed every 24 hours. […] These cells were left for 72 h (single dose) after which time the total number of viable cells was analyzed using Alamar Blue®. All data are n≧4 showing mean+/−s.e.m. K. MCF7 cells were plated with C17 for 24 hours after which time the total number of viable cells was measured by Alamar Blue®.
(§3) All cells were grown at 37° C. in a 5% CO2 humidified atmosphere in DMEM supplemented with 10% heat inactivated FBS, 1× glutamax, and 1× penicillin/streptomycin. […] Proliferation assays were conducted by plating cells at 5% confluence in 96 well plates together with compound or 0.1% DMSO. Cells were allowed to grow for 72 hours (a 24 h dosing regimen was used for carbonate compounds) and then Alamar Blue® was added and number of cells was measured by fluorescence on a microplate reader.

[3] = tested on: B16/F10 cells; experiment: proliferation and cell cycle of B16/F10 cells; assay type: cell-based, mouse
Method: A. MCF7 cells were treated with C17 for 4 h and Mdm2 levels were measured. B. As in A, P53 measured. C. As in A, P21 measured. D. MCF7 and B16/F10 cells were treated with C17 every 24 hours. After 72 hours, the number of viable cells was measured by Alamar Blue®.
MCF7 cells were dosed every 2 hours with the indicated concentration of C15. After 6 hours, cells were lysed by freeze thaw and then sonicated in 0.5% SDS. A. Total lysates were blotted for K48-linked ubiquitin and actin. B. Normalized K48-linked ubiquitin signal was plotted as a function of concentration of C15 (N=2). C. […] Doxorubicin (Dox) is a DNA damaging agent that serves as a positive control for the induction of P53. D. Quantitation of P53 levels in C relative to actin (N=2). […] MCF7 cells were treated under the stated conditions then analyzed for cell cycle. F. DMSO treated cells. G. Cells treated with C17 (25 μM), dosed every 24 hours. H. Cells treated with C17 (50 μM), dosed every 24 hours. […] These cells were left for 72 h (single dose) after which time the total number of viable cells was analyzed using Alamar Blue®. All data are n≧4 showing mean+/−s.e.m. K. MCF7 cells were plated with C17 for 24 hours after which time the total number of viable cells was measured by Alamar Blue®. L. B16/F10 cells were treated with DMSO, C17 or P005091 for 72 h. […] After this time, cells were analyzed by flow cytometry.
All cells were grown at 37° C. in a 5% CO2 humidified atmosphere in DMEM supplemented with 10% heat inactivated FBS, 1× glutamax, and 1× penicillin/streptomycin. […] Typically clarified lysate was analyzed. […] Lysates were centrifuged (20 000 rpm, microcentrifuge, Eppendorf 5417 C) concentration was measured, then 0.1% SDS was added and lysates were sonicated for a total of 30 s (in 10 s bursts). Protein concentration was determined using Bradford assay with IgG as standard and analyzed by western blot as delineated below {[9 μg total protein for K48-linked ubiquitin (1:9000 antibody dilution), SMAD4 (1:500) or PARP (1:1000)]; [30-40 μg was loaded for K63-linked ubiquitin (1:1500), Mdm2 (1:1000) or Abl (1:1500). […]

[4] = tested on: MCF7 cells
Method: as §2, §3

[5] = tested on: K562 cells; experiment: apoptosis, cell cycle and viability of K562 cells by flow cytometry; assay type: cell-based, human; conditions: K562 cells
Method: K562 cells are from a myelogenous leukemia line that expresses Bcr-Abl kinase. A. K562 cells were treated with TU50 for 24 hours after which time the cells were treated with annexin V-FITC and propidium iodide. Cells were then analyzed by flow cytometry. Cells showing only annexin V-FITC were considered apoptotic whereas cells showing both annexin V-FITC and propidium iodide were considered necrotic. N=2. All points show a significant difference to the vehicle (DMSO) with p<0.05. […] All points show a significant difference to vehicle (DMSO) with p<0.02. C. Same as A, but the incubation period was 8 hours. N>2. All points show a significant difference to DMSO with p<0.02. D, K562 cells were treated with TU50 for 4 hours. Samples were analyzed by SDS-PAGE and immunoblotting with anti-Bcr-Abl antibody. E. Quantitation of blot in D. The signal for tubulin was used to normalize the Bcr-Abl signal. N=3.
FIG. 40 depicts data showing that diphenyl carbonates induce the degradation of Bcr-Abl kinase. A. K562 cells were treated with C17 for 24 h (1 dose) then analyzed for Bcr-Abl expression by western blot with anti-Abl antibody. B. Quantitation of blots in A normalized to actin. C. K562 cells were treated with C17 for 24 h then the amount of cells in G1 and apoptosis were recorded (N=3). D. K562 were treated with C15 for 4 h then analyzed for Bcr-Abl expression using western blot. E. Quantitation of Bcr-Abl from D normalized to tubulin (N=4). F. Same K562 lysates were separately analyzed for K63-linked ubiquitin. G. Quantitation of blots in F (N=4). Differences between all bars is significant p<0.01). H. K562 cells were treated with C15 for 24 h after which time cells were fixed in ethanol, treated with propodium iodide/RNAse then analyzed by FACS. Viability was calculated using forward and side scatter. I. Same experiment as H but red fluorescence was measured to determine DNA content

[6] = tested on: SMAD4; experiment: SMAD4 monoubiquitination in K562 cells by western blot; assay type: cell-based, human
Method: FIG. 34 depicts data showing that diphenylcarbonates cause the accumulation of HMW-Ub and reduce the levels of Bcr-Abl in K562 cells. A. K562 cells were treated with diphenyl carbonates (50 μM) for 2 h and then assayed for the accumulation of K48-linked Ub. B. As in A, but Bcr-Abl was measured by immunoblotting with anti-Abl antibodies. C. K562 cells were treated with C17 (50 μM) in the presence and absence of bortezomib (6 μM) for 4 hours and Bcr-Abl was measured by immunblotting with anti-Abl antibodies. D. Quantitation of blot in C. Significance: DMSO relative to C17 and bortezomib p=0.002; DMSO relative to C17, p=0.03. E. K562 cells were treated with C15 for 4 hours then analyzed for SMAD4 monoubiquitination by western blot. F. Quantitation of blots in A. (N=3). See also FIG. 40.
(§1) Transfected cells were harvested 1.5 days post transfection. […] Typically clarified lysate was analyzed.

[7] = tested on: Cos-1 cells; experiment: accumulation of K48- and K63-linked HMW-Ub in Cos-1 cells; assay type: cell-based, monkey
Method: A. Cos-1 cells were treated with C15 dosing every 2 h for 4 hours. Cells were lysed in standard lysis buffer (without detergent) and the sample was clarified prior to analysis. The accumulation of K48-linked ubiquitin was assayed by SDS-PAGE and by western blot. An intervening lane has been removed for clarity. B Lysates and pellet in A were sonicated in SDS at 4° C., centrifuged then analyzed by SDS-PAGE and by western blot. An intervening lane has been removed for clarity. C. Quantitation of blots in A. D. Quantitation of blots in B.
FIG. 39 depicts data showing the effects of diphenyl carbonates in whole cells. A. Cos-1 cells expressing GFP-Ub(G76V) were treated with the stated diphenyl carbonate (100 μM), bortezomib (B, 20 μM) or DMSO (D) for 8 h. GFP levels were quantified by flow cytometry. B. Cells from A were assessed for viability using propidium iodide dye exclusion assay. C. […] After this time GFP levels were quantified by flow cytometry. D. Cells from C were assessed for viability using propidium iodide dye exclusion. […] G. Cos-1 cells were treated with C15 for 2 hours then analyzed for K48-linked ubiquitin by western blot. […] I. Quantitation of blots in […] (N=3).
as §1

NCc1ccc(OC(=O)Oc2ccc3ccccc3c2)cc1 [Compound C17]
HA-Ub-VS labeling without preincubation ([1]; C17 25 μM immediately followed by HA-Ub-VS 1.5 μM): not sufficient to inhibit the labeling of any of the DUBs | HA-Ub-VS labeling after preincubation and dilution ([1]; C17 250 μM preincubated, diluted 10-fold): labeling was reduced | viability after single dose, 24 h ([2]; Alamar Blue): small, but significant, decrease in viability | G1 phase cells ([2]; FACS, dosed every 24 hours): significant increase in G1 phase cells | cell cycle distribution ([3]; 72 h, flow cytometry): decrease in cells in G1 phase and an increase in G2 | proliferation ([3]; 72 hours, dosed every 24 hours): inhibited proliferation in B16/F10 cells | cytotoxicity after single dose, 72 h [4]: no cytotoxicity was observed | decrease of cell viability [4]: 50% | G1 and apoptotic cells ([5]; 24 h incubation): dose-dependent increase in G1 and apoptotic cells

NCc1ccc(OC(=O)Oc2ccc(Br)cc2)cc1 [Compound C15, 4-(aminomethyl)phenyl(4-bromophenyl)carbonate]
SMAD4 monoubiquitination [6]: increased SMAD4 monoubiquitination | increase in total K48-linked and K63-linked HMW-Ub [7]: 3-5 fold | K48-linked HMW ubiquitin, soluble versus whole cell fraction ([7]; dosing every 2 h for 4 hours): causes the accumulation of soluble HMW-Ub in Cos-1 cells; also recorded: only detectable in the soluble fraction | viability, G1 and apoptotic cells ([5]; 24 h, at 50 μM): decrease in viability, and increase in G1 and apoptotic cells
